From the NIST ThermoML archive (doi:10.1021/je9010486)

Experiment: cn = amount concentration of the nth substance listed, in mol/dm3
Details: 101 kPa, Liquid

OC[C@@H](O)[C@H](O)[C@@H](O)CO [xylitol] + O
Details	mass density, 293.15 K [kg/m3]	mass density, 303.15 K [kg/m3]	mass density, 313.15 K [kg/m3]	mass density, 323.15 K [kg/m3]	viscosity, 293.15 K [mPa·s]	viscosity, 303.15 K [mPa·s]	viscosity, 313.15 K [mPa·s]	viscosity, 323.15 K [mPa·s]
c1 = 0.1	1003.31	1000.96	997.16	992.72	1.068	0.858	0.685	0.5687
c1 = 0.2	1008.5	1005.78	1002.18	997.77	1.089	0.8774	0.7057	0.5916
c1 = 0.3	1013.42	1010.64	1006.99	1002.55	1.128	0.9121	0.7305	0.6093
c1 = 0.4	1018.54	1015.65	1011.95	1007.51	1.165	0.9452	0.764	0.6384
c1 = 0.5	1023.6	1020.49	1016.87	1012.42	1.207	0.9829	0.7869	0.6596
c1 = 0.6	1028.66	1025.38	1021.78	1017.34	1.25	1.021	0.825	0.6779
c1 = 0.7	1033.72	1030.28	1026.7	1022.25	1.313	1.079	0.8476	0.7063
c1 = 0.8	1038.78	1035.17	1031.62	1027.17	1.362	1.123	0.8825	0.7344
c1 = 0.9	1043.84	1040.06	1036.54	1032.09	1.423	1.178	0.923	0.7618
c1 = 1	1048.9	1044.95	1041.45	1037	1.473	1.223	0.9632	0.7896

OC[C@@H](O)[C@@H](O[C@H]1O[C@H](CO)[C@@H](O)[C@H](O)[C@H]1O)[C@H](O)[C@@H](O)CO [4-O-α-D-glucopyranosyl-D-glucitol] + O
Details	mass density, 293.15 K [kg/m3]	mass density, 303.15 K [kg/m3]	mass density, 313.15 K [kg/m3]	mass density, 323.15 K [kg/m3]	viscosity, 293.15 K [mPa·s]	viscosity, 303.15 K [mPa·s]	viscosity, 313.15 K [mPa·s]	viscosity, 323.15 K [mPa·s]
c1 = 0.1	1009.45	1007.32	1003.78	999.68	1.274	0.8869	0.6982	0.6083
c1 = 0.2	1018.37	1016.24	1012.7	1008.6	1.381	0.9747	0.7706	0.652
c1 = 0.3	1027.29	1025.16	1021.62	1017.52	1.513	1.104	0.8464	0.7175
c1 = 0.4	1036.21	1034.08	1030.54	1026.44	1.66	1.225	0.9455	0.7827
c1 = 0.5	1045.13	1043	1039.46	1035.36	1.848	1.361	1.06	0.8723
c1 = 0.6	1054.05	1051.92	1048.38	1044.28	2.009	1.536	1.177	0.9616
c1 = 0.7	1062.97	1060.84	1057.3	1053.2	2.173	1.684	1.301	1.061
c1 = 0.8	1071.89	1069.76	1066.22	1062.12	2.304	1.825	1.438	1.15
c1 = 0.9	1080.81	1078.68	1075.14	1071.04	2.49	1.947	1.591	1.242
c1 = 1	1089.73	1087.6	1084.06	1079.96	2.68	2.132	1.741	1.385
